# Experimental data taken from patent US20040082635A1, “Fused cyclic compounds and medicinal use thereof” (priority 2001, published 2004).
# Structures can show the parent of a compound that is named as a salt. Where two headings read alike, the source gives them in different places.
# Target: T1, HCV polymerase (Hepatitis C virus genotype 1b, UniProt P26663)
# T1 construct: a region encoding NS5B (591 amino acids; J Virol 1991 Mar, 65(3), 1105-13) was amplified by PCR; 6 His (N); made in house; host or cells: Escherichia coli
# Assay: biochemical
# [1] = read-out: HCV polymerase inhibitory activity IC50
# T1 sequence (P26663 2420-3010): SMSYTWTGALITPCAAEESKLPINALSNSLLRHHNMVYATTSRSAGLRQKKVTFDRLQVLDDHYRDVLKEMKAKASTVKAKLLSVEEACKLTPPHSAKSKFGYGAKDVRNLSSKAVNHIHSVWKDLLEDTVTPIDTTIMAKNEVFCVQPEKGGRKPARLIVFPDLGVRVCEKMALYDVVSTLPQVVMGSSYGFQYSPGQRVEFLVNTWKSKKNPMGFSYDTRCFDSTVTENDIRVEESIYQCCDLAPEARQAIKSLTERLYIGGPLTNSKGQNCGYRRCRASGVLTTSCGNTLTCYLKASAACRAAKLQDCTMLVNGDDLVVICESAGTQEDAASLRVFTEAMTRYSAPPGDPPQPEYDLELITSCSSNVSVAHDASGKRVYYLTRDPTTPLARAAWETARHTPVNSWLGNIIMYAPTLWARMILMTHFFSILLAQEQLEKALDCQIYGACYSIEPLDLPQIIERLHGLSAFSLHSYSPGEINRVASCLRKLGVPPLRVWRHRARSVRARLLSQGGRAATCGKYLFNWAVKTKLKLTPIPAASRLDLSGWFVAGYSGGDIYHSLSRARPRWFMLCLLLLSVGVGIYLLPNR
Structure (SMILES),IC50 [1] [nM],IC50 (HCV polymerase inhibitory activity IC50) [nM]
"Cc1nc(-c2ccc(C(=O)O)cc2)c(COc2ccc(-c3nc4cc(C(=O)O)ccc4n3C3CCCCC3)cc2)s1 [Example 255, 1-cyclohexyl-2-{4-[{4-(4-carboxyphenyl)-2-methyl-5-thiazolyl}-methoxy]phenyl}benzimidazole-5-carboxylic acid hydrochloride]",38,–
"O=C(O)c1ccc2c(c1)nc(-c1ccc(OCc3ccc(F)cc3C(=O)c3cccc(F)c3)cc1F)n2C1CCCCC1 [Example 256, 1-cyclohexyl-2-{2-fluoro-4-[4-fluoro-2-(3-fluorobenzoyl)benzyloxy]phenyl}benzimidazole-5-carboxylic acid]",79,–
"COc1ccc(-c2ccc(Cl)cc2)c(COc2ccc(-c3nc4cc(S(=O)(=O)O)ccc4n3C3CCCCC3)cc2)c1 [Example 257, 2-{4-[2-(4-chlorophenyl)-5-methoxybenzyloxy]phenyl}-1-cyclohexylbenzimidazole-5-sulfonic acid]",74,–
"CN(C)C(=O)c1cc(OCc2ccncc2)cc(Oc2ccc(-c3nc4cc(C(=O)O)ccc4n3C3CCCCC3)cc2)c1 [Example 259, 1-cyclohexyl-2-{4-[3-dimethylcarbamoyl-5-(4-pyridylmethoxy)-phenoxy]phenyl}benzimidazole-5-carboxylic acid dihydrochloride]",100,–
"O=C(O)c1cc(OCc2ccncc2)cc(Oc2ccc(-c3nc4cc(C(=O)O)ccc4n3C3CCCCC3)cc2)c1 [Example 260, 1-cyclohexyl-2-{4-[3-carboxy-5-(4-pyridylmethoxy)phenoxy]-phenyl}benzimidazole-5-carboxylic acid dihydrochloride]",270,–
"O=C(O)c1ccc(-c2ncccc2COc2ccc(-c3nc4cc(C(=O)O)ccc4n3C3CCCCC3)cc2)cc1 [Example 263, 2-{4-[{2-(4-carboxyphenyl)-3-pyridyl}methoxy]phenyl}-1-cyclohexylbenzimidazole-5-carboxylic acid]",35,–
"COc1ccc(-c2ccc(Cl)cc2)c(COc2ccc(-c3nc4cc(C(=O)O)ccc4n3C3CCSCC3)cc2)c1 [Example 264, 2-{4-[2-(4-chlorophenyl)-5-methoxybenzyloxy]phenyl}-1-(4-tetrahydrothiopyranyl)benzimidazole-5-carboxylic acid]",< 10,–
"CN(C)C(=O)c1ccc(-c2ccc(Cl)cc2)c(COc2ccc(-c3nc4cc(C(=O)O)ccc4n3C3CCCCC3)cc2)c1 [Example 265, 2-{4-[2-(4-chlorophenyl)-5-dimethylcarbamoylbenzyloxy]phenyl}-1-cyclohexylbenzimidazole-5-carboxylic acid hydrochloride]",–,14
"CN(C)C(=O)c1ccc(-c2ccc(C(F)(F)F)cc2)c(COc2ccc(-c3nc4cc(C(=O)O)ccc4n3C3CCCCC3)cc2)c1 [Example 266, 1-cyclohexyl-2-{4-[3-dimethylcarbamoyl-6-(4-trifluoromethylphenyl)benzyloxy]phenyl}benzimidazole-5-carboxylic acid hydrochloride]",18,–
"CSc1ccc(-c2ccc(C(=O)N(C)C)cc2COc2ccc(-c3nc4cc(C(=O)O)ccc4n3C3CCCCC3)cc2)cc1 [Example 267, 1-cyclohexyl-2-{4-[3-dimethylcarbamoyl-6-(4-methylthiophenyl)-benzyloxy]phenyl}benzimidazole-5-carboxylic acid hydrochloride]",14,–
"CN(C)C(=O)c1ccc(-c2ccc(Cl)cc2)c(COc2ccc(-c3nc4cc(C(=O)O)ccc4n3C3CCCCC3)c(F)c2)c1 [Example 269, 2-{4-[2-(4-chlorophenyl)-5-dimethylcarbamoylbenzyloxy]-2-fluorophenyl}-1-cyclohexylbenzimidazole-5-carboxylic acid hydrochloride]",13,–
"NC(=O)c1ccc(-c2ccc(Cl)cc2)c(COc2ccc(-c3nc4cc(C(=O)O)ccc4n3C3CCCCC3)c(F)c2)c1 [Example 270, 2-{4-[3-carbamoyl-6-(4-chlorophenyl)benzyloxy]-2-fluorophenyl}-1cyclohexylbenzimidazole-5-carboxylic acid hydrochloride]",12,–
"CN(C)C(=O)c1ccc(-c2ccc(S(C)(=O)=O)cc2)c(COc2ccc(-c3nc4cc(C(=O)O)ccc4n3C3CCCCC3)cc2)c1 [Example 271, 2-{4-[3-dimethylcarbamoyl-6-(4-methanesulfonylphenyl)benzyloxy]-phenyl}-1-cyclohexylbenzimidazole-5-carboxylic acid hydrochloride]",24,–
"CN(C)C(=O)c1ccc(-c2cccnc2)c(COc2ccc(-c3nc4cc(C(=O)O)ccc4n3C3CCCCC3)cc2)c1 [Example 272, 2-{4-[3-dimethylcarbamoyl-6-(3-pyridyl)benzyloxy]phenyl}-1-cyclohexylbenzimidazole-5-carboxylic acid dihydrochloride]",66,–
"CN(C)C(=O)c1ccc(-c2ccc(C(=O)N(C)C)cc2COc2ccc(-c3nc4cc(C(=O)O)ccc4n3C3CCCCC3)cc2)cc1 [Example 273, 2-{4-[3-dimethylcarbamoyl-6-(4-dimethylcarbamoylphenyl)-benzyloxy]phenyl}-1-cyclohexylbenzimidazole-5-carboxylic acid]",41,–
"COc1ccc(-c2ccc(Cl)cc2)c(COc2ccc(-c3nc4cc(C(=O)O)ccc4n3C3CCSCC3)c(F)c2)c1 [Example 276, 2-{4-[2-(4-chlorophenyl)-5-methoxybenzyloxy]-2-fluorophenyl}-1-(4-tetrahydrothiopyranyl)benzimidazole-5-carboxylic acid]",23,–
"CN(C)S(=O)(=O)c1ccc(-c2ccc(Cl)cc2)c(COc2ccc(-c3nc4cc(C(=O)O)ccc4n3C3CCCCC3)cc2)c1 [Example 279, 2-{4-[2-(4-chlorophenyl)-5-dimethylsulfamoylbenzyloxy]phenyl}-1-cyclohexylbenzimidazole-5-carboxylic acid hydrochloride]",17,–
"CS(=O)(=O)c1ccc(-c2ccc(Cl)cc2)c(COc2ccc(-c3nc4cc(C(=O)O)ccc4n3C3CCCCC3)cc2)c1 [Example 280, 2-{4-[2-(4-chlorophenyl)-5-methanesulfonylbenzyloxy]phenyl}-1-cyclohexylbenzimidazole-5-carboxylic acid]",16,–
"CN(C)c1ccc(-c2ccc(Cl)cc2)c(COc2ccc(-c3nc4cc(C(=O)O)ccc4n3C3CCCCC3)cc2)c1 [Example 282, 2-{4-[2-(4-chlorophenyl)-5-dimethylaminobenzyloxy]phenyl}-1-cyclohexylbenzimidazole-5-carboxylic acid]",19,–
"CS(=O)(=O)Nc1ccc(-c2ccc(Cl)cc2)c(COc2ccc(-c3nc4cc(C(=O)O)ccc4n3C3CCCCC3)cc2)c1 [Example 283, 2-{4-[2-(4-chlorophenyl)-5-methanesulfonylaminobenzyloxy]phenyl}-1-cyclohexylbenzimidazole-5-carboxylic acid]",14,–
"CCN(CC)C(=O)c1ccc(-c2ccc(Cl)cc2)c(COc2ccc(-c3nc4cc(C(=O)O)ccc4n3C3CCCCC3)c(F)c2)c1 [Example 284, 2-{4-[2-(4-chlorophenyl)-5-diethylcarbamoylbenzyloxy]-2-fluorophenyl}-1-cyclohexylbenzimidazole-5-carboxylic acid]",14,–
"O=C(O)c1ccc2c(c1)nc(-c1ccc(OCc3cc(C(=O)N4CCCCC4)ccc3-c3ccc(Cl)cc3)cc1F)n2C1CCCCC1 [Example 286, 2-{4-[2-(4-chlorophenyl)-5-piperidinocarbonylbenzyloxy]-2-fluorophenyl}-1-cyclohexylbenzimidazole-5-carboxylic acid]",14,–
"O=C(O)c1ccc2c(c1)nc(-c1ccc(OCc3cc(C(=O)N4CCCC4)ccc3-c3ccc(Cl)cc3)cc1F)n2C1CCCCC1 [Example 287, 2-{4-[2-(4-chlorophenyl)-5-(1-pyrrolidinyl)carbonylbenzyloxy]-2-fluorophenyl}-1-cyclohexylbenzimidazole-5-carboxylic acid]",12,–
"O=C(O)c1ccc2c(c1)nc(-c1ccc(OCc3cc(C(=O)NCCO)ccc3-c3ccc(Cl)cc3)cc1F)n2C1CCCCC1 [Example 288, 2-{4-[2-(4-chlorophenyl)-5-(2-hydroxyethyl)carbamoylbenzyloxy]-2-fluorophenyl}-1-cyclohexylbenzimidazole-5-carboxylic acid]",13,–
"O=C(O)c1ccc2c(c1)nc(-c1ccc(OCc3cc(C(=O)N4CCC(O)CC4)ccc3-c3ccc(Cl)cc3)cc1F)n2C1CCCCC1 [Example 289, 2-{4-[2-(4-chlorophenyl)-5-(4-hydroxypiperidino)-carbonylbenzyloxy]-2-fluorophenyl}-1-cyclohexylbenzimidazole-5-carboxylic acid]",< 10,–
"O=C(O)c1ccc2c(c1)nc(-c1ccc(OCc3cc(C(=O)N4CCOCC4)ccc3-c3ccc(Cl)cc3)cc1F)n2C1CCCCC1 [Example 290, 2-{4-[2-(4-chlorophenyl)-5-morpholinocarbonylbenzyloxy]-2-fluorophenyl}-1-cyclohexylbenzimidazole-5-carboxylic acid]",12,–
"O=C(O)c1ccc2c(c1)nc(-c1ccc(OCc3cc(C(=O)N4CCSCC4)ccc3-c3ccc(Cl)cc3)cc1F)n2C1CCCCC1 [Example 291, 2-{4-[2-(4-chlorophenyl)-5-thiomorpholinocarbonylbenzyloxy]-2-fluorophenyl}-1-cyclohexylbenzimidazole-5-carboxylic acid]",16,–
"O=C(O)CNC(=O)c1ccc(-c2ccc(Cl)cc2)c(COc2ccc(-c3nc4cc(C(=O)O)ccc4n3C3CCCCC3)c(F)c2)c1 [Example 292, 2-{4-[3-(carboxymethylcarbamoyl)-6-(4-chlorophenyl)benzyloxy]-2-fluorophenyl}-1-cyclohexylbenzimidazole-5-carboxylic acid]",15,–
"O=C(O)CCc1ccc(-c2ccc(Cl)cc2COc2ccc(-c3nc4cc(C(=O)O)ccc4n3C3CCCCC3)cc2)cc1 [Example 293, 2-{4-[2-{4-(2-carboxyethyl)phenyl}-5-chlorobenzyloxy]phenyl}-1-cyclohexylbenzimidazole-5-carboxylic acid]",34,–
"O=C(O)c1ccc2c(c1)nc(-c1ccc(OCc3cc(Cl)ccc3-c3ccc(CO)cc3)cc1)n2C1CCCCC1 [Example 294, 2-{4-[3-chloro-6-(4-hydroxymethylphenyl)benzyloxy]phenyl}-1-cyclohexylbenzimidazole-5-carboxylic acid]",32,–
